Measured values published in patent US10208071B2, “Use of agonists of formyl peptide receptor 2 for treating ocular inflammatory diseases” (Allergan, Inc., priority 2013, dated 2019).

Assays:
FPR2 [1] = molecular target: T1, FPR2 (Homo sapiens (Human), UniProt P25090); test: FPR2 Ga16-CHO EC50 (efficacy), Tables 1-3; assay type: cell-based; settings: for FPR2 Ga16-CHO (efficacy): efficacy in parentheses
FPR2 [2] = molecular target: T1, FPR2; test: FLIPR Ca+2 response, HEK-Gα16 cells stably expressing the human FPR2 receptor (Table 4); assay type: cell-based; settings: for FPR2 (efficacy): efficacy in parentheses
In short: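 HEK-Gα16 cells stably expressing human FPR2, loaded with 2 μM Fluo-4 in HBSS/20 mM HEPES for 40 min at 37° C., then washed. Ligands added in HBSS/Hepes and Ca+2 responses recorded on FLIPR in relative fluorescence units.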

T1 sequence (P25090 whole entry): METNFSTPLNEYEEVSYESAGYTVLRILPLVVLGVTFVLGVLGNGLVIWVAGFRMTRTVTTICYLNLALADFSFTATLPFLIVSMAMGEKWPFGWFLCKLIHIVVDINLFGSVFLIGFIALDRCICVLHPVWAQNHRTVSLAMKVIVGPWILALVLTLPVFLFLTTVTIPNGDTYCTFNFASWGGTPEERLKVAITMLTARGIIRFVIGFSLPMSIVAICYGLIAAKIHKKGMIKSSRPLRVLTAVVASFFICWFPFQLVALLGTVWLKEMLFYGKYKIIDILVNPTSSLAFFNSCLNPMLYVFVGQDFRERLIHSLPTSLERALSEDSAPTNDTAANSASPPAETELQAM

Compound	EC50 (FPR2 [1]) [µM]	FPR2 Ga16-CHO (efficacy) (FPR2 [1])	EC50 (FPR2 [2]) [µM]	FPR2 (efficacy) (FPR2 [2])
CC1(CCc2ccccc2)NC(=O)N(NC(=O)Nc2ccccc2F)C1=O (stereo not shown) [1-(2-fluorophenyl)-3-[4-methyl-2,5-dioxo-4-(2-phenylethyl)imidazolidin-1-yl]urea]	0.258	nM (0.94)	–	–
O=C(Nc1ccc(Cl)cc1)NN1C(=O)NC2(CCCCC2)C1=O [1-(4-chlorophenyl)-3-(2,4-dioxo-1,3-diazaspiro[4,5]decan-3-yl) urea]	0.049	nM (0.98)	–	–
CCC1(C)NC(=O)N(NC(=O)Nc2ccc(Cl)cc2)C1=O (stereo not shown) [1-(4-chlorophenyl)-3-(4-ethyl-4-methyl-2,5-dioxoimidazolidin-1-yl)urea]	0.157	nM (0.96)	–	–
Cc1ccc(NC(=O)NN2C(=O)NC3(CCC(C)CC3)C2=O)cc1 (stereo not shown) [1-(8-methyl-2,4-dioxo-1,3-diazaspiro[4,5]decan-3-yl)-3-(p-tolypurea]	0.363	nM (0.91)	–	–
CC1(CCc2ccccc2)NC(=O)N(NC(=O)Nc2ccccc2)C1=O (stereo not shown) [1-[4-methyl-2,5-dioxo-4-(2-phenylethyl)imidazolidin-1-yl]-3-phenylurea]	0.223	nM (1.0)	–	–
CCC1(CC)NC(=O)N(CC(=O)Nc2ccc(F)cc2)C1=O [2-(4,4-diethyl-2,5-dioxoimidazolidin-1-yl)-N-(4-fluorophenyl)acetamide]	2.77	nM (0.67)	–	–
COc1ccc(NC(=O)NC(Cc2ccccc2)C(=O)O)cc1OC (stereo not shown) [2-({[(3,4-dimethoxyphenyl)amino]carbonyl}amino)-3-phenylpropanoic acid]	2.79	nM (0.72)	–	–
O=C(Nc1ccc(Br)cc1)NC(Cc1c[nH]c2ccccc12)C(=O)O (stereo not shown) [2-({[(4-bromophenyl)amino]carbonyl}amino)-3-(1H-indol-3-yl)propanoic acid]	0.067	nM (0.89)	–	–
O=C(Nc1ccc(Cl)cc1)NC(Cc1ccccc1)C(=O)O (stereo not shown) [2-({[(4-chlorophenyl)amino]carbonyl}amino)-3-phenylpropanoic acid]	0.11	nM (1.0)	–	–
O=C(Nc1ccc(OC(F)(F)F)cc1)NC(Cc1ccccc1)C(=O)O (stereo not shown) [3-phenyl-2-[({[4-(trifluoromethoxy)phenyl]amino}carbonyl)amino]propanoic acid]	1.57	nM (0.79)	–	–
O=C(Nc1cccnc1)NC(Cc1ccccc1)C(=O)O (stereo not shown) [3-phenyl-2-{[(pyridin-3-ylamino)carbonyl]amino}propanoic acid]	> 10	–	–	–
O=C(Nc1ccc(Br)cc1)N[C@H](Cc1ccccc1)C(=O)O [(2R)-2-({[(4-bromophenyl)amino]carbonyl}amino)-3-phenylpropanoic acid]	1.82	nM (0.99)	–	–
O=C(Nc1ccc(Cl)c(Cl)c1)N[C@@H](Cc1ccccc1)C(=O)O [(2S)-2-({[(3,4-dichlorophenyl)amino]carbonyl}amino)-3-phenylpropanoic acid]	–	μM (0.57)	–	–
CC(C)[C@H](NC(=O)Nc1ccc(Br)cc1F)C(=O)O [(2S)-2-({[(4-bromo-2-fluorophenyl)amino]carbonyl}amino)-3-methylbutanoic acid]	0.152	nM (0.91)	–	–
CSCC[C@H](NC(=O)Nc1ccc(Br)cc1)C(=O)NCC(=O)O [Compound 144, {[(2S)-2-{[(4-bromophenyl)carbamoyl]amino}-4-(methylsulfanyl)butanoyl]amino} acetic acid]	–	–	0.0063	nM (0.91)
CC(C)C1(CC(=O)NCCC(=O)O)NC(=O)N(NC(=O)Nc2ccc(Br)cc2F)C1=O (stereo not shown) [Compound 145, 3-({[-{[(4-bromo-2-fluorophenyl)carbamoyl]amino}-2,5-dioxo-4-(propan-2-yl)imidazolidin-4-yl]acetyl}amino)propanoic acid]	–	–	0.001	nM (1.0)
CCC1(CCc2ccccc2C(=O)O)NC(=O)N(NC(=O)Nc2ccc(Br)cc2F)C1=O (stereo not shown) [Compound 146, 2-[2-(1-{[(4-bromo-2-fluorophenyl)carbamoyl]amino}-4-ethyl-2,5-dioxoimidazolidin-4-yl)ethyl]benzoic acid]	–	–	0.0111	nM (1.0)
CC(C)C1(CC(=O)NCCC(=O)O)NC(=O)N(NC(=O)Nc2ccc(Br)cc2)C1=O (stereo not shown) [Compound 147, 3-({[1-{[(4-bromophenyl)carbamoyl]amino}-2,5-dioxo-4-(propan-2-yl)imidazolidin-4-yl]acetyl}amino)propanoic acid]	–	–	0.0039	nM (0.99)
CC(C)C1(CC(=O)NCCO)NC(=O)N(NC(=O)Nc2ccc(Br)cc2F)C1=O (stereo not shown) [Compound 148, 2-[1-{[(4-bromo-2-fluorophenyl)carbamoyl]amino}-2,5-dioxo-4-(propan-2-yl)imidazolidin-4-yl]-N-(2-hydroxyethyl)acetamide]	–	–	0.0069	nM (0.98)
CCOC(=O)CCC1(C(C)C)NC(=O)N(NC(=O)Nc2ccc(Br)cc2)C1=O (stereo not shown) [Compound 149, ethyl 3-[1-{[(4-bromophenyl)carbamoyl]amino}-2,5-dioxo-4-(propan-2-yl)imidazolidin-4-yl]propanoate]	–	–	0.0066	nM (0.94)
O=C(O)CNC(=O)C(Cc1c[nH]c2ccccc12)NC(=O)Nc1ccc(Br)cc1 (stereo not shown) [Compound 150, {[2-{[(4-bromophenyl)carbamoyl]amino}-3-(1H-indol-3-yl)propanoyl]amino}acetic acid]	–	–	0.0014	nM (0.98)
CC(C)C1(CCc2ccccc2C(=O)O)NC(=O)N(NC(=O)Nc2ccc(Br)cc2)C1=O (stereo not shown) [Compound 151, 2-{2-[1-{[(4-bromophenyl)carbamoyl]amino}-2,5-dioxo-4-(propan-2-yl)imidazolidin-4-yl]ethyl}benzoic acid]	–	–	0.0058	nM (1.0)
CCOP(=O)(CCNC(=O)CC1(C(C)C)NC(=O)N(NC(=O)Nc2ccc(Br)cc2)C1=O)OCC (stereo not shown) [Compound 152, diethyl [2-({[1-{[(4-bromophenyl)carbamoyl]amino}-2,5-dioxo-4-(propan-2-yl)imidazolidin-4-yl]acetyl}amino)ethyl] phosphonate]	–	–	0.011	nM (1.0)
CCOC(=O)C1CCC2(CC1)NC(=O)N(NC(=O)Nc1ccc(Br)cc1)C2=O (stereo not shown) [Compound 153, ethyl 3-{[(4-bromophenyl)carbamoyl]amino}-2,4-dioxo-1,3-diazaspiro[4.5]decane-8-carboxylate]	–	–	0.012	nM (0.99)
CC(C)C[C@H](NC(=O)Nc1ccc(Br)cc1)C(=O)N(C)CC(=O)OC(C)(C)C [Compound 154, tert-butyl {[(2S)-2-{[(4-bromophenyl)carbamoyl]amino}-4-methylpentanoyl](methyl)amino} acetate]	–	–	0.012	nM (0.85)
CC(C)C[C@H](NC(=O)Nc1ccc(Br)cc1)C(=O)N(C)CC(=O)O [Compound 155, {[(2S)-2-{[(4-bromophenyl)carbamoyl]amino}-4-methylpentanoyl](methyl)amino} acetic acid]	–	–	0.001	nM (1.0)
CC(C)C[C@H](NC(=O)Nc1ccc(C(F)(F)F)cc1)C(=O)NCS(=O)(=O)O [Compound 237, {[(2S)-4-methyl-2-({[4-(trifluoromethyl)phenyl]carbamoyl}amino)pentanoyl]amino} methanesulfonic acid]	–	–	0.0019	nM (0.99)
